Data set [1] has as its system 647-V bladder cancer cell line. Kind of data set: CellTiter-Glo viability assay, 647-V. Type of data set: cell-based. Particulars: Homo sapiens, FGFR3 status WT, 72 hours, read-out: Ganetespib IC50. As for the experimental part:
Cellular viability was assessed using the CellTiter-Glo Luminescent Cell Viability Assay (Promega) according to manufacturer protocols. Bladder cancer cell lines were seeded into 96-well plates based on optimal growth rates determined empirically for each line. Twenty-four hours after plating, cells were dosed with graded concentrations of ganetespib for 72 hours. CellTiter-Glo was added (50% v/v) to the cells, and the plates incubated for 10 minutes prior to luminescent detection in a SpectraMax Plus 384 microplate reader (Molecular Devices). Data were normalized to percent of control and IC50 values used to determine the sensitivity of each line. For the comparative analyses with ganetespib and BGJ398, RT112 cells were treated with graded concentrations of each compound for 72 hours and cell viability measured as above. For the evaluation of apoptotic induction, caspase activity was assessed using the Caspase-Glo 3/7 assay (Promega) according to manufacturer protocols. Twenty-four hours after plating, RT112 cells were treated with graded concentrations of ganetespib for 24 hours. Caspase-Glo was added to cells (50% v/v) and the plates incubated for 1 hour prior to luminescent detection.
A general note: ATP-based viability assays read luminescence as a measure of living cells.

The next data set concerns RT112 cells. The data set is described as follows: LC-MS/MS bioanalysis of ganetespib and glucuronidated metabolites in RT112 cells. Type of data set: in vitro ADME. Particulars: 1 μM ganetespib, 24-hour time course. As for the experimental part: In the first set of experiments, RT112 and SW780 cells were treated with graded concentrations of ganetespib or 17-DMAG (10-1000 nM) for 1 and 24 hours. Cell lysates were prepared for measurement of intracellular concentrations of the respective HSP90 inhibitors. RT112 and SW780 cells were also treated with 1 μM ganetespib for 15 minutes, 1, 4, 8 and 24 hours. At each time point cell lysates were prepared and media was collected for analysis of intracellular and secreted concentrations of ganetespib and its glucuronidated metabolites. Bioanalysis was performed on equal protein concentrations from cell lysates or equal volumes of media. All samples were ultimately extracted by protein precipitation and analyzed by LC-MS/MS using an Agilent 1100 HPLC interfaced to an API 4000 tandem mass spectrometer (Applied Biosystems). A Phenomenex Kinetex 2.6 μm C18 (30×2.1 mm) column was used with a run time of 3.5 min per sample.

Broadly, the IC50 is the point on the concentration scale where inhibition reaches its midpoint. Regarding `CC(C)c1cc(-c2n[nH]c(=O)n2-c2ccc3c(ccn3C)c2)c(O)cc1O` [ganetespib], the IC50 in data set [1] turned out to be 27 nM. For the same compound, the “glucuronidated form of ganetespib within cells” value in the data set on RT112 cells was “No glucuronidated form of ganetespib was detectable”.

The values above are taken from patent publication US20160324863A1, “TARGETED CANCER TREATMENT BY HSP90 INHIBITORS GANETESPIB AND NVP-AUY922” (SYNTA PHARMACEUTICALS CORP., priority 2014, published 2016).
